Data taken from publication PMC11642016 (International Journal of Molecular Sciences, 2024).
Read-outs that look alike come from different tables or passages of the source.

How the values were obtained:
Fadu cells = assay: CellTiter-Glo luminescent cell viability assay, Fadu; settings: 72 h, 72 h, mean ± SD, n = 2; for viability at 2.8 µM / viability at 8.3 µM / viability at 25 µM: Homo sapiens, FaDu; for viability at 2.8 µM: read-out: Cell Viability (% of Control) 2.8 µM, Fadu; for viability at 8.3 µM: read-out: Cell Viability (% of Control) 8.3 µM, Fadu; for viability at 25 µM: read-out: Cell Viability (% of Control) 25 µM, Fadu; for Cell Viability (% of Control) 2.8 µM / Cell Viability (% of Control) 8.3 µM / Cell Viability (% of Control) 25 µM: Fadu
PANC-1 cells = assay: CellTiter-Glo luminescent cell viability assay, PANC-1; settings: 72 h, mean ± SD, n = 2; for viability at 2.8 µM / viability at 8.3 µM / viability at 25 µM: Homo sapiens, PANC-1, 72 h; for viability at 2.8 µM: read-out: Cell Viability (% of Control) 2.8 µM, PANC-1; for viability at 8.3 µM: read-out: Cell Viability (% of Control) 8.3 µM, PANC-1; for viability at 25 µM: read-out: Cell Viability (% of Control) 25 µM, PANC-1; for Cell Viability (% of Control) 2.8 µM / Cell Viability (% of Control) 8.3 µM / Cell Viability (% of Control) 25 µM: PANC-1
Procedure: Primary fibroblast cultures were prepared from human skin biopsies and maintained in DMEM supplemented with 10% FBS, 1% penicillin-streptomycin, and 1% MEM Non-Essential Amino Acids Solution (Thermo Fisher Scientific). […] All cell lines were cultured in a humidified atmosphere at 37 °C and 5% CO2, passaged twice a week, and the experiments were performed on cells between passage 5 and 15. The cell lines were routinely screened for the absence of mycoplasma infection (DAPI staining).
The effects of the synthesized compounds on cell viability were measured using the CellTiter-Glo® luminescent cell viability assay (Promega, Madison, WI, USA), according to the manufacturer’s instructions. Briefly, cells were seeded onto a flat-bottomed, white 96-well plate (BRANDplates, cat. no.: 781965)), with the following densities: PANC-1: 750 cells/well, Fadu: 2000 cells/well, primary fibroblasts: 2000 cells/well, HEK293T WT: 1000 cells/well, HEK293T CLPP^−/−: 2500 cells/well. After seeding, cells were incubated for a further 48 h before treatment. Cells were treated with the compounds for 72 h. Three concentrations (25.0 µM; 8.3 µM; 2.8 µM) were applied during the initial cell viability screening, while for the determination of dose–response curves, 1.5-fold serially diluted compound concentrations were applied (range: 26 µM–0.7 µM). After treatment, the luminescence signal was recorded using a microplate reader (BioTek Synergy 2 Multi-Mode Reader, BioTek, Winooski, VT, USA).
Data analysis was performed using GraphPad Prism 9.5.0 software (GraphPad Software, San Diego, CA, USA). […] The dose–response curves were generated by four-parameter nonlinear regression, and the IC50 values were determined as the means ± SEM of the best-fit values of 3 independent measurements. The R^2 values were consistently above 0.93, indicating a strong fit of the model to the experimental data (Supplementary S.89). […] Dunnett’s post hoc test was applied to adjust for multiple comparisons, minimizing the likelihood of false positive results. Assumptions for ANOVA, including normality (assessed via QQ plots) and homogeneity of variance (tested using the Brown–Forsythe test), were verified. The following significance levels were applied: * p < 0.05, ** p < 0.01, *** p < 0.001, **** p < 0.0001. […] The tumor selectivity of the compounds was quantitatively characterized by the selectivity index (SI). This parameter was calculated as the ratio of the average best-fit IC50 value for primary fibroblasts and the best-fit IC50 value for the corresponding tumor cells (PANC-1 or Fadu).

| Compound | viability at 2.8 µM (Fadu cells; second-set screening) [%] | viability at 8.3 µM (Fadu cells; second-set screening) [%] | viability at 25 µM (Fadu cells; second-set screening) [%] | viability at 2.8 µM (PANC-1 cells; second-set screening) [%] | viability at 8.3 µM (PANC-1 cells; second-set screening) [%] | viability at 25 µM (PANC-1 cells; second-set screening) [%] | viability at 2.8 µM (Fadu cells; first-set screening) [%] | viability at 8.3 µM (Fadu cells; first-set screening) [%] | viability at 25 µM (Fadu cells; first-set screening) [%] | viability at 2.8 µM (PANC-1 cells; first-set screening) [%] | viability at 8.3 µM (PANC-1 cells; first-set screening) [%] | viability at 25 µM (PANC-1 cells; first-set screening) [%] | other results |
| --- | --- | --- | --- | --- | --- | --- | --- | --- | --- | --- | --- | --- | --- |
| O=C1C2=C(CCN(Cc3ccc(-n4cc(-c5ccccc5)nn4)cc3)C2)N2CCN=C2N1Cc1cccc(C#CCN2CCCCC2)c1 [40b] | 92 ± 9 | 60 ± 3 | 24 ± 11 | 125 ± 5 | 12 ± 10 | 1 ± 1 | – | – | – | – | – | – | – |
| O=C1C2=C(CCN(Cc3ccc(-n4cc(-c5ccccc5)nn4)cc3)C2)N2CCN=C2N1Cc1cccc(C#CCO)c1 [2d] | – | – | – | – | – | – | 99 ± 7 | 90 ± 10 | 78 ± 6 | 100 ± 8 | 87 ± 1 | 81 | – |
| NCC#Cc1ccc(CN2C(=O)C3=C(CCN(Cc4cccc(-n5cc(-[c-]6cccc6)nn5)c4)C3)N3CCN=C23)cc1.[Fe+2].c1cc[cH-]c1 [3a] | – | – | – | – | – | – | – | – | – | – | – | – | Cell Viability (% of Control) 2.8 µM (Fadu cells; first-set screening): 104 ± 5 % of Control; Cell Viability (% of Control) 8.3 µM (Fadu cells; first-set screening): 100 ± 6 % of Control; Cell Viability (% of Control) 25 µM (Fadu cells; first-set screening): 0 ± 0 % of Control; Cell Viability (% of Control) 2.8 µM (PANC-1 cells; first-set screening): 101 ± 7 % of Control; Cell Viability (% of Control) 8.3 µM (PANC-1 cells; first-set screening): 88 ± 0 % of Control; Cell Viability (% of Control) 25 µM (PANC-1 cells; first-set screening): 0 ± 0 % of Control |
| NCC#Cc1cccc(CN2C(=O)C3=C(CCN(Cc4ccc(NC(=O)[c-]5cccc5)cc4)C3)N3CCN=C23)c1.[Fe+2].c1cc[cH-]c1 [23a] | – | – | – | – | – | – | – | – | – | – | – | – | Cell Viability (% of Control) 2.8 µM (Fadu cells; second-set screening): 109 ± 10 % of Control; Cell Viability (% of Control) 8.3 µM (Fadu cells; second-set screening): 107 ± 7 % of Control; Cell Viability (% of Control) 25 µM (Fadu cells; second-set screening): 61 ± 20 % of Control; Cell Viability (% of Control) 2.8 µM (PANC-1 cells; second-set screening): 98 ± 7 % of Control; Cell Viability (% of Control) 8.3 µM (PANC-1 cells; second-set screening): 104 ± 10 % of Control; Cell Viability (% of Control) 25 µM (PANC-1 cells; second-set screening): 52 ± 55 % of Control |
| O=C1C2=C(CCN(Cc3ccc(-n4cc(-c5ccccc5)nn4)cc3)C2)N2CCN=C2N1Cc1ccc(C#CCO)cc1 [1c] | – | – | – | – | – | – | 79 | 71 | 64 ± 2 | 95 ± 3 | 87 ± 2 | 88 ± 6 | – |
| NCC#Cc1cccc(CN2C(=O)C3=C(CCN(Cc4ccc(C(=O)Nc5ccccc5)cc4)C3)N3CCN=C23)c1 [33b] | 120 ± 9 | 115 ± 6 | 80 ± 11 | 102 ± 9 | 109 ± 5 | 71 ± 32 | – | – | – | – | – | – | – |
| O=C1C2=C(CCN(Cc3cccc(-n4cc(-c5ccccc5)nn4)c3)C2)N2CCN=C2N1Cc1cccc(C#CCO)c1 [4d] | – | – | – | – | – | – | 37 ± 1 | 27 ± 3 | 23 ± 3 | 74 ± 3 | 60 ± 2 | 53 ± 8 | – |
| Nc1cccc(-c2cn(-c3ccc(CN4CCC5=C(C4)C(=O)N(Cc4ccc(C#CCO)cc4)C4=NCCN45)cc3)nn2)c1 [1d] | – | – | – | – | – | – | 99 ± 9 | 96 ± 7 | 84 ± 4 | 99 ± 3 | 101 ± 3 | 100 ± 5 | – |
| O=C1C2=C(CCN(Cc3ccc(-n4cc(-[c-]5cccc5)nn4)cc3)C2)N2CCN=C2N1Cc1ccc(C#CCO)cc1.[Fe+2].c1cc[cH-]c1 [1b] | – | – | – | – | – | – | – | – | – | – | – | – | Cell Viability (% of Control) 2.8 µM (Fadu cells; first-set screening): 88 ± 4 % of Control; Cell Viability (% of Control) 8.3 µM (Fadu cells; first-set screening): 83 ± 0 % of Control; Cell Viability (% of Control) 25 µM (Fadu cells; first-set screening): 68 ± 3 % of Control; Cell Viability (% of Control) 2.8 µM (PANC-1 cells; first-set screening): 92 ± 0 % of Control; Cell Viability (% of Control) 8.3 µM (PANC-1 cells; first-set screening): 93 ± 3 % of Control; Cell Viability (% of Control) 25 µM (PANC-1 cells; first-set screening): 95 ± 2 % of Control |
| NCC#Cc1cccc(CN2C(=O)C3=C(CCN(Cc4ccc(NC(=O)c5ccccc5)cc4)C3)N3CCN=C23)c1 [23b] | 117 ± 11 | 108 ± 7 | 77 ± 6 | 113 ± 15 | 106 ± 5 | 47 ± 39 | – | – | – | – | – | – | – |
| CN(C)CC#Cc1cccc(CN2C(=O)C3=C(CCN(Cc4ccc(-n5cc(-c6ccccc6)nn5)cc4)C3)N3CCN=C23)c1 [39b] | 96 ± 4 | 15 ± 8 | 1 ± 1 | 107 ± 3 | 25 ± 20 | 2 ± 3 | – | – | – | – | – | – | – |
| O=C1C2=C(CCN(Cc3ccc(-n4cc(-[c-]5cccc5)nn4)cc3)C2)N2CCN=C2N1Cc1cccc(C#CCN2CCCCC2)c1.[Fe+2].c1cc[cH-]c1 [40a] | – | – | – | – | – | – | – | – | – | – | – | – | Cell Viability (% of Control) 2.8 µM (Fadu cells; second-set screening): 105 ± 5 % of Control; Cell Viability (% of Control) 8.3 µM (Fadu cells; second-set screening): 81 ± 21 % of Control; Cell Viability (% of Control) 25 µM (Fadu cells; second-set screening): 45 ± 34 % of Control; Cell Viability (% of Control) 2.8 µM (PANC-1 cells; second-set screening): 119 ± 4 % of Control; Cell Viability (% of Control) 8.3 µM (PANC-1 cells; second-set screening): 72 ± 61 % of Control; Cell Viability (% of Control) 25 µM (PANC-1 cells; second-set screening): 61 ± 67 % of Control |
| NCc1cccc(CN2C(=O)C3=C(CCN(Cc4ccc(-n5cc(-c6ccccc6)nn5)cc4)C3)N3CCN=C23)c1 [37b] | 108 ± 7 | 91 ± 12 | 13 ± 6 | 110 ± 5 | 113 ± 3 | 5 ± 6 | – | – | – | – | – | – | – |
| O=C1C2=C(CCN(Cc3ccc(-n4cc(-c5ccccc5)nn4)cc3)C2)N2CCN=C2N1Cc1cccc(C#CCN2CCOCC2)c1 [42b] | 108 ± 7 | 91 ± 12 | 13 ± 6 | 94 ± 5 | 82 ± 5 | 59 ± 3 | – | – | – | – | – | – | – |
| CN1CCN(CC#Cc2cccc(CN3C(=O)C4=C(CCN(Cc5ccc(-n6cc(-c7ccccc7)nn6)cc5)C4)N4CCN=C34)c2)CC1 [41b] | 106 ± 1 | 30 ± 28 | 3 ± 1 | 110 ± 6 | 0 | 0 | – | – | – | – | – | – | – |
| NCC#Cc1cccc(CN2C(=O)C3=C(CCN(Cc4ccc(-n5cc(-c6ccc(F)cc6)nn5)cc4)C3)N3CCN=C23)c1 [36b] | 114 ± 7 | 1 ± 1 | 0 | 116 ± 7 | 0 | 0 | – | – | – | – | – | – | – |
| O=C1C2=C(CCN(Cc3ccc(-n4cc(-[c-]5cccc5)nn4)cc3)C2)N2CCN=C2N1Cc1cccc(C#CCN2CCOCC2)c1.[Fe+2].c1cc[cH-]c1 [42a] | – | – | – | – | – | – | – | – | – | – | – | – | Cell Viability (% of Control) 2.8 µM (Fadu cells; second-set screening): 121 ± 3 % of Control; Cell Viability (% of Control) 8.3 µM (Fadu cells; second-set screening): 112 ± 11 % of Control; Cell Viability (% of Control) 25 µM (Fadu cells; second-set screening): 55 ± 12 % of Control; Cell Viability (% of Control) 2.8 µM (PANC-1 cells; second-set screening): 132 ± 4 % of Control; Cell Viability (% of Control) 8.3 µM (PANC-1 cells; second-set screening): 75 ± 31 % of Control; Cell Viability (% of Control) 25 µM (PANC-1 cells; second-set screening): 58 ± 36 % of Control |
| O=C1C2=C(CCN(Cc3cccc(-n4cc(-[c-]5cccc5)nn4)c3)C2)N2CCN=C2N1Cc1ccc(C#CCO)cc1.[Fe+2].c1cc[cH-]c1 [3c] | – | – | – | – | – | – | – | – | – | – | – | – | Cell Viability (% of Control) 2.8 µM (Fadu cells; first-set screening): 103 ± 9 % of Control; Cell Viability (% of Control) 8.3 µM (Fadu cells; first-set screening): 99 ± 2 % of Control; Cell Viability (% of Control) 25 µM (Fadu cells; first-set screening): 85 ± 5 % of Control; Cell Viability (% of Control) 2.8 µM (PANC-1 cells; first-set screening): 100 ± 3 % of Control; Cell Viability (% of Control) 8.3 µM (PANC-1 cells; first-set screening): 98 ± 1 % of Control; Cell Viability (% of Control) 25 µM (PANC-1 cells; first-set screening): 98 ± 1 % of Control |
| O=C1C2=C(CCN(Cc3cccc(-n4cc(-c5ccccc5)nn4)c3)C2)N2CCN=C2N1Cc1ccc(C#CCO)cc1 [3d] | – | – | – | – | – | – | 87 ± 1 | 29 ± 2 | 23 ± 3 | 85 ± 1 | 55 ± 6 | 46 ± 7 | – |
| NCC#Cc1ccc(CN2C(=O)C3=C(CCN(Cc4ccc(-n5cc(-c6cccc(N)c6)nn5)cc4)C3)N3CCN=C23)cc1 [1a] | – | – | – | – | – | – | 106 ± 2 | 99 ± 2 | 10 | 100 ± 5 | 93 ± 7 | 3 ± 2 | – |
